Measured values reported in ChEMBL document CHEMBL1151852, “Tetranortriterpenoids from the Leaves of Cipadessa cinerascens” (2009).

The molecules below were run on P388 (assay: Cytotoxicity against mouse P388 cells after 72 hrs by MTT assay). Conditions: P388, 72 h, read-out: ED50 (the source's name).
Type: functional

Question: With `C=C1[C@@H]2CC[C@@]3(C)[C@H](c4ccoc4)OC(=O)C[C@]13O[C@H]1[C@H](OC(C)=O)[C@H](OC(C)=O)C(C)(C)[C@H](CC(=O)OC)[C@@]21C` as the molecule, how does the EC50 read?
Answer: > 5 µg/mL

Question: `CC[C@@H](C)C(=O)O[C@@H]1[C@H]2C(=O)[C@@](C)([C@@H](CC(=O)OC)C1(C)C)[C@@]13O[C@@H]1C[C@@]1(C)[C@H](c4ccoc4)OC(=O)C[C@@H]1[C@]31O[C@H]21` [CINERACIPADESIN A] was tested. Which EC50 did it give?
Answer: > 5 µg/mL

Question: `C=C1[C@@]23CC(=O)O[C@@H](c4ccoc4)[C@]2(C)C[C@@H](O)[C@]1(O)[C@@]1(C)[C@@H](O3)[C@@H](OC(C)=O)[C@@H](OC(C)=O)C(C)(C)[C@@H]1CC(=O)OC` [CINERACIPADESIN B] was tested. Which EC50 did it give?
Answer: > 5 µg/mL

Question: How did the EC50 turn out when `C=C1[C@]2(O)C(=O)C[C@@]3(C)[C@H](c4ccoc4)OC(=O)C[C@]13O[C@H]1C[C@@H](OC(C)=O)C(C)(C)[C@H](CC(=O)OC)[C@]12C` [CINERACIPADESIN C] was run?
Answer: > 5 µg/mL

Question: `C=C1[C@@H]2[C@H](OC(C)=O)C[C@@]3(C)[C@H](c4ccoc4)OC(=O)C[C@]13O[C@H]1C[C@@H](OC(C)=O)C(C)(C)[C@H](CC(=O)OC)[C@]12C` [CINERACIPADESIN D] was tested. Which EC50 did it give?
Answer: > 5 µg/mL

Question: `C=C1[C@@H]2[C@H](OC(C)=O)C[C@@]3(C)[C@H](c4ccoc4)OC(=O)C[C@]13O[C@H]1[C@@H](OC(C)=O)[C@@H](OC(C)=O)C(C)(C)[C@H](CC(=O)OC)[C@@]21C` [CINERACIPADESIN E] was tested. Which EC50 did it give?
Answer: > 5 µg/mL

Question: With `C=C1[C@]2(OC(C)=O)C[C@@]3(C)[C@H](c4ccoc4)OC(=O)C[C@]13O[C@H]1[C@@H](OC(C)=O)[C@@H](OC(C)=O)C(C)(C)[C@H](CC(=O)OC)[C@@]1(C)C2=O` [CINERACIPADESIN F] as the molecule, how does the EC50 read?
Answer: > 5 µg/mL
